For data set [1], the system named is Aβ42. Particulars: WO 01/78721 A1; cited from earlier work.
Data set [2] relates to amyloid precursor protein (APP). Particulars: cited from earlier work.
The conditions of data set [3]: cited from earlier work.
In data set [4] the target is T1, COX-1 (Homo sapiens, UniProt P23219). Description: inhibition of eicosanoid formation in HEL cells (COX-1). The format is cell-based. On the set-up: eicosanoid formation in HEL cells (COX-1); endogenous in cells; host or cells: HEL cells. Particulars: FIG. 7.
Data set [5] concerns the target T2, COX-2 (Homo sapiens, UniProt P35354).
T2 construct: LPS-stimulated Mono Mac 6-cells (COX-2); endogenous in cells; host or cells: LPS-stimulated Mono Mac 6 cells
T2 sequence (P35354 18-604): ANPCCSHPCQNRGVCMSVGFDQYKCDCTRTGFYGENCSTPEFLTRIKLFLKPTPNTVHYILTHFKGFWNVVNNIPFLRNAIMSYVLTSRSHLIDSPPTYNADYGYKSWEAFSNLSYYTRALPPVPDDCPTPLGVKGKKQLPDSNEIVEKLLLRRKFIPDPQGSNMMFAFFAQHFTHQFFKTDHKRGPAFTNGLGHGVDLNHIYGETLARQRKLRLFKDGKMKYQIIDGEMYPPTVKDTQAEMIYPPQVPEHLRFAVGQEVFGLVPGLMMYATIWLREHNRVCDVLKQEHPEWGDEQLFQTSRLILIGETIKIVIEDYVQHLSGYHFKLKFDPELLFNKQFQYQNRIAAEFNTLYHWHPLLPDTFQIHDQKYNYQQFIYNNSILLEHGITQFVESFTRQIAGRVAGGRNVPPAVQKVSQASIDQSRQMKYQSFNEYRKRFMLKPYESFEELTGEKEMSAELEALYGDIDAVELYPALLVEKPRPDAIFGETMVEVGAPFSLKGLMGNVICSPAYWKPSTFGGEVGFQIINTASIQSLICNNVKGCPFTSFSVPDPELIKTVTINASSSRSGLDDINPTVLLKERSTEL
As to the kind of experiment: inhibition of COX-2 (isozyme of the eicosanoid metabolism). The format is biochemical.

For data set [6] the following is noted: Pruss et al. 1989; cited from earlier work.
The target of data set [7] is T2, COX-2. Description: inhibition of eicosanoid formation in LPS-stimulated Mono Mac 6-cells (COX-2). The note with it: FIG. 7. In kind it is cell-based.
Data set [8] is described as follows: plasma half-life. Particulars: in vivo.
Data set [9] addresses T1, COX-1. Description: inhibition of COX-1 (isozyme of the eicosanoid metabolism). In kind it is biochemical. More on the design: eicosanoid formation in HEL cells (COX-1); endogenous in cells; host or cells: HEL cells.

SMILES strings stand for the structures.

T1 sequence (P23219 24-599): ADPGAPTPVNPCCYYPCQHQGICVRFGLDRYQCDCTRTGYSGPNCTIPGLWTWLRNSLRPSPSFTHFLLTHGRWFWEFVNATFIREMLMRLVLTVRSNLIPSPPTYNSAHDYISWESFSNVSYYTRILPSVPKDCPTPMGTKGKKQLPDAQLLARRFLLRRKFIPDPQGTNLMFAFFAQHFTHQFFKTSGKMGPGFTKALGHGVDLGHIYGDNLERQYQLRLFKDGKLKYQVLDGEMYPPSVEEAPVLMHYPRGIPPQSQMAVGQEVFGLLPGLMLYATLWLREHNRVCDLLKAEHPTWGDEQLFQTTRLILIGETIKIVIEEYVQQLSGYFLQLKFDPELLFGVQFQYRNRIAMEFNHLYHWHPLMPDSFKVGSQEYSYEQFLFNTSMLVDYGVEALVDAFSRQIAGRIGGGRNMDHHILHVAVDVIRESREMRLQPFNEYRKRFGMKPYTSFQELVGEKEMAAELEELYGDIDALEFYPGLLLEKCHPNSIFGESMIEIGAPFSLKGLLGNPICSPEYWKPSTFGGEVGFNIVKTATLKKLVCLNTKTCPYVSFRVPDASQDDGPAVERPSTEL

With `Cc1cc(NC(=O)C2=C(O)c3ccccc3S(=O)(=O)N2C)no1` [isoxicam], the “influence on the expression of Aβ42” value in data set [1] is “do not influence the expression of Aβ42 and even increase the expression thereof, respectively”.
On to `CN1C(C(=O)Nc2ccccn2)=C(O)c2ccccc2S1(=O)=O` [peroxicam], for which the “influence on the expression of Aβ42” value in data set [1] is “do not influence the expression of Aβ42 and even increase the expression thereof, respectively”.
For `CC(C)Cc1ccc(C(C)C(=O)O)cc1` (stereo not shown) [Ibuprofen], in data set [2], the “portion of the amyloid β-42 peptide” value is “lowered” and the “portion of the non-amyloidogenic soluble APP” value was “increased”.
With `CN1C(C(=O)Nc2ccccn2)=C(O)c2sc(Cl)cc2S1(=O)=O` [lornoxicam], the “severe undesired events reported” value in data set [3] (in one million of prescriptions) is listed as “less than 10”. Further, in data set [3] (in vivo), the “gastro-intestinal and other tolerance” value is on record as “good”; the “side-effects found during observation of usage” value is reported as “below 0.05%”. Also, the “inhibition of the eicosanoid formation” value in [4] is reported as “inhibition”. Further, the “inhibition of COX-2” value in [5] is recorded as “inhibits”. Besides, the “crossing the blood-brain barrier” value in [6] is listed as “not capable of crossing the blood-brain barrier”. Further, the “inhibition of the eicosanoid formation” value in data set [7] was “inhibition”. The plasma half-life result in [8] is “short”. Further, the “inhibition of COX-1” value in data set [9] was “inhibits”.

(Values after patent publication US8129370B2, “Use of oxicam compounds” (Dritte PatentPortfolio Beteiligungsgesellschaft MBH & Co. KG, priority 2003, dated 2012).)
